Results as given in paper PMC4098866 (Bioscience Reports, 2012).
“And” between values parts separate entries of the source, which are not always exact repeats. Identical values can stand only once. Like-named read-outs stand apart in the source and are kept apart here. Values belong to the molecule of their own block, whether it stands above or below them.

What was measured:
RPSA-(2–295) [1] = molecular target: T1, RPSA-(2–295) (Mus musculus, UniProt P14206); assay: Fluorimetric titration of RPSA derivative with EGCG; format: binding, murine
RPSA-(2–220) [2] = molecular target: T2, RPSA-(2–220) (Mus musculus, UniProt P14206); assay: as above; format: binding, murine; conditions: read-out: KD(EGCG); 25°C, PBS, equilibrium in solution, spectrofluorimetry
RPSA-(2–209) [3] = molecular target: T3, RPSA-(2–209) (Mus musculus, UniProt P14206); assay: as above; format: binding, murine
RPSA-(210–295) [4] = molecular target: T4, RPSA-(210–295) (Mus musculus, UniProt P14206); assay: as above; format: binding, murine; conditions: 25°C
RPSA-(225–295) [5] = molecular target: T5, RPSA-(225–295) (Mus musculus, UniProt P14206); assay: as above; format: binding, murine; conditions: 25°C
RPSA-(2–209) W176A = RPSA-(2–209) W176A (Mus musculus, UniProt P14206, W176A); assay: Fluorimetric titration of mutant RPSA-; format: binding, murine
RPSA-(2–209) W195A = RPSA-(2–209) W195A (Mus musculus, UniProt P14206, W195A); assay: Fluorimetric titration of mutant RPSA-; format: binding, murine
N-domain of RPSA = N-domain of RPSA (Mus musculus, UniProt P14206); assay: Summary of ligand binding functions of RPSA domains; parameters: species or system murine; conditions: read-out: KD (dissociation constants), N-domain; rounded value of the Abstract
[6] = test system: 67LR form of RPSA, purified from human cancer cells; conditions: 25°C, surface plasmon resonance; cited from earlier work
RPSA-(2–295) [7] = molecular target: T1, RPSA-(2–295); assay: Indirect ELISA, capture of heparin by immobilized RPSA derivative; format: binding, murine; conditions: 25°C
RPSA-(2–220) [8] = molecular target: T2, RPSA-(2–220); assay: as above; format: binding, murine; conditions: 25°C, half-saturation, listed as Heparin
RPSA-(2–209) [9] = molecular target: T3, RPSA-(2–209); assay: as above; format: binding, murine; conditions: 25°C, half-saturation
RPSA-(210–295) [10] = molecular target: T4, RPSA-(210–295); assay: as above; format: binding, murine; conditions: 25°C
RPSA-(225–295) [11] = molecular target: T5, RPSA-(225–295); assay: as above; format: binding, murine; conditions: 25°C
[12] = molecular target: capture of laminin by immobilized RPSA-(2–220) (Mus musculus, UniProt P14206); format: binding, murine; conditions: EC50 smaller than K1/2
[13] = molecular target: interaction between RPSA-(225–295) and laminin (Mus musculus, UniProt P02468+P02469+P19137); assay: Competition ELISA, inhibition constant Ki of heparin; format: binding, murine; conditions: read-out: constant of inhibition (Ki); 25°C, buffer C, laminin 5 μg/ml, immobilized RPSA-(225–295)
RPSA-(2–295) [14] = molecular target: T1, RPSA-(2–295); assay: Competition ELISA, KD between laminin and RPSA derivative; format: binding, murine
RPSA-(2–220) [15] = molecular target: T2, RPSA-(2–220); assay: as above; format: binding, murine; conditions: read-out: KD(Laminin), 25°C, buffer C, equilibrium in solution
RPSA-(2–209) [16] = molecular target: T3, RPSA-(2–209); assay: as above; format: binding, murine; conditions: read-out: KD(Laminin), 25°C, buffer C, equilibrium in solution
RPSA-(210–295) [17] = molecular target: T4, RPSA-(210–295); assay: as above; format: binding, murine; conditions: read-out: KD(Laminin), 25°C, buffer C, equilibrium in solution
RPSA-(225–295) [18] = molecular target: T5, RPSA-(225–295); assay: as above; format: binding, murine; conditions: read-out: KD(Laminin), 25°C, buffer C, equilibrium in solution
C-domain of RPSA = C-domain of RPSA (Mus musculus, UniProt P14206); assay: Summary of ligand binding functions of RPSA domains; parameters: species or system murine; conditions: read-out: KD (dissociation constants), C-domain; rounded value of the Abstract
67LR = conditions: cell membrane, denatured, SPRadio-L, cited from earlier work
RPSA 1–220 = conditions: 1–220, E. coli, native, Ind. ELISA, 37 °C; cited from earlier work
RPSA 1–295 = conditions: 1–295, E. coli, native, Ind. ELISA, 37 °C; cited from earlier work
[19] = molecular target: RPSA 161–180 (synthetic peptide G); conditions: SPRadio-L, 4 °C; cited from earlier work
[20] = read-out: KD(EGCG), 25°C, PBS, equilibrium in solution, spectrofluorimetry
[21] = uncorrected fluorescence, consistent with tryptophanamide control

KD of EGCG, full-length RPSA-(2–295) relative to N-domain (RPSA-(2–295) [1]; higher for full-length): 4 fold | Kd (RPSA-(2–295) [1]; [20]): 399 ± 101 nM | Kd (RPSA-(2–220) [2]): 130 ± 37 nM | KD of EGCG with RPSA-(2–209) relative to literature KD with 67LR (RPSA-(2–209) [3]; higher than 39.9 nM of ref 46): 2.5 fold | Kd (RPSA-(2–209) [3]; [20]): 99 ± 7 nM | EGCG binding (in words) (RPSA-(210–295) [4]; spectrofluorimetry): did not bind | [EGCG]1/2 (concentration of half-absorption, Beer's law fitted to F) (RPSA-(210–295) [4]; [21]): 48 µM | EGCG binding (in words) (RPSA-(225–295) [5]; spectrofluorimetry): did not bind | [EGCG]1/2 (concentration of half-absorption, Beer's law fitted to F) (RPSA-(225–295) [5]; [21]): 43 µM | decrease of free energy of interaction (ΔΔG) with EGCG (RPSA-(2–209) W176A; W176A vs parental RPSA-(2–209)): 0.4 ± 0.1 kcal/mol | Kd (RPSA-(2–209) W176A; read-out: KD (EGCG), 25°C, W176A mutant of RPSA-(2–209)): 186 ± 42 nM | decrease of free energy of interaction (ΔΔG) with EGCG (RPSA-(2–209) W195A; W195A vs parental RPSA-(2–209)): 0.4 ± 0.1 kcal/mol | Kd (RPSA-(2–209) W195A; read-out: KD (EGCG), 25°C, W195A mutant of RPSA-(2–209)): 196 ± 54 nM | Kd (N-domain of RPSA): 100 nM
Molecule: O=C(O[C@@H]1Cc2c(O)cc(O)cc2O[C@@H]1c1cc(O)c(O)c(O)c1)c1cc(O)c(O)c(O)c1 [EGCG, (−)-epigallocatechin-3-gallate]
KD (EGCG and 67LR), ratio kd/ka [6]: 39.9 nM

heparin binding (in words) (RPSA-(2–295) [7]): did not bind | K1/2(Heparin) (RPSA-(2–295) [7]; half-saturation): ≫4 μM | K1/2(Heparin) (RPSA-(2–220) [8]): 4.4 µM and 4.36 ± 0.28 µM | K1/2(Heparin) (RPSA-(2–209) [9]): 1.43 µM | K1/2(Heparin) (RPSA-(2–209) [9]; listed as Heparin): 1.43 ± 0.06 µM | heparin binding (in words) (RPSA-(210–295) [10]): did not bind | K1/2(Heparin) (RPSA-(210–295) [10]; half-saturation): ≫2 μM | heparin binding (in words) (RPSA-(225–295) [11]): did not bind | K1/2(Heparin) (RPSA-(225–295) [11]; half-saturation): ≫2 μM | EC50 relative to K1/2 of heparin for RPSA-(2–220) [12]: 130 fold | Ki [13]: 16.1 ± 0.7 nM
Molecule: heparin sodium salt

KD of laminin, full-length RPSA-(2–295) relative to N- or C-domain (RPSA-(2–295) [14]; higher for full-length): 2 fold | Kd (RPSA-(2–295) [14]; read-out: KD(Laminin), 25°C, buffer C, equilibrium in solution, competition ELISA): 666 ± 33 nM | Kd (RPSA-(2–220) [15]): 691 ± 98 nM | Kd (RPSA-(2–209) [16]): 273 ± 37 nM | Kd (RPSA-(210–295) [17]): 374 ± 54 nM | Kd (RPSA-(225–295) [18]): 344 ± 50 nM | Kd (N-domain of RPSA): 300 nM | Kd (C-domain of RPSA): 300 nM
Molecule: laminin: laminin from mouse EHS (Engelbreth-Holm-Swarm) sarcoma, component of the extracellular matrix
Kd (67LR; 4 °C): 2 nM | Kd (67LR; 20 °C): 2 nM | Kd (RPSA 1–220): 1700 nM | Kd (RPSA 1–295): 700 nM | Kd [19]: 52 nM
